22 compounds from patent US7973033B2, “Multi-cyclic cinnamide derivatives” (Eisai R&D Management Co., Ltd., priority 2006, dated 2011) can be followed below.

Each structure is given as a SMILES string.

In the experiment the test system is Aβ 42 production. Put plainly: Quantification of Aβ Peptide in Culture of Neurons from Rat Fetus Brain. The experiment is classed as cell-based. The note with it: Neuron, 72 h; rat primary neuronal culture (cerebral cortex, embryonic day 18 Wistar rats); medium collected three days after addition of the compound; Aβ ELISA; read-out: Effect of reducing Aβ 42 production IC50. The protocol: Quantification of Aβ Peptide in Culture of Neurons from Rat Fetus Brain
(1) Rat Primary Neuronal Culture
Primary neuronal cultures were prepared from the cerebral cortex of embryonic day 18 Wistar rats (Charles River Japan, Yokohama, Japan). Specifically, the embryos were aseptically removed from pregnant rats under ether anesthesia. The brain was isolated from the embryo and immersed in an ice-cold L-15 medium (Invitrogen Corp. Cat #11415-064, Carlsbad, Calif., USA, or SIGMA L1518, for example). The cerebral cortex was collected from the isolated brain under a stereoscopic microscope. The cerebral cortex fragments collected were enzymatically treated in an enzyme solution containing 0.25% trypsin (Invitrogen Corp. Cat #15050-065, Carlsbad, Calif., USA) and 0.01% DNase (Sigma D5025, St. Louis, Mo., USA) at 37° C. for 30 minutes to disperse the cells. Here, the enzymatic reaction was stopped by adding inactivated horse serum to the solution. The enzymatically treated solution was centrifuged at 1,500 rpm for five minutes to remove the supernatant. 5 to 10 ml of a medium was added to the resulting cell mass. Neurobasal medium (Invitrogen Corp. Cat #21103-049, Carlsbad, Calif., USA) supplemented with 2% B27 supplement (Invitrogen Corp. Cat #17504-044, Carlsbad, Calif., USA), 25 μM 2-mercaptoethanol (2-ME, WAKO Cat #139-06861, Osaka, Japan), 0.5 mM L-glutamine (Invitrogen Corp. Cat #25030-081, Carlsbad, Calif., USA), and Antibiotics-Antimycotics (Invitrogen Corp. Cat #15240-062, Carlsbad, Calif., USA) was used as the medium (Neurobasal/B27/2-ME). However, the above Neurobasal medium not supplemented with 2-ME (Neurobasal/B27) was used for the assay. The cells were redispersed by mild pipetting of the cell mass to which the medium was added. The cell dispersion was filtered through a 40-μm nylon mesh (Cell Strainer, Cat #35-2340, Becton Dickinson Labware, Franklin Lakes, N.J., USA) to remove the remaining cell mass, and thus a neuronal cell suspension was obtained. The neuronal cell suspension was diluted with the medium and then plated in a volume of 100 μl/well at an initial cell density of 5×10^5 cells/cm^2 in a 96-well polystyrene culture plate pre-coated with poly-L or D-lysine (Falcon Cat #35-3075, Becton Dickinson Labware, Franklin Lakes, N.J., USA coated with poly-L-lysine using the method shown below, or BIOCOAT™ cell environments Poly-D-lysine cell ware 96-well plate, Cat #35-6461, Becton Dickinson Labware, Franklin Lakes, N.J., USA). Poly-L-lysine coating was carried out as follows. 100 μg/ml of a poly-L-lysine (SIGMA P2636, St. Louis, Mo., USA) solution was aseptically prepared with a 0.15 M borate buffer (pH 8.5). 100 μl/well of the solution was added to the 96-well polystyrene culture plate and incubated at room temperature for one or more hours or at 4° C. overnight or longer. The coated 96-well polystyrene culture plate was washed with sterile water four or more times, and then dried or rinsed with, for example, sterile PBS or medium, and used for cell plating. The plated cells were cultured in the culture plate at 37° C. in 5% CO2-95% air for one day. Then, the total amount of the medium was replaced with a fresh Neurobasal™/B27/2-ME medium, and then the cells were cultured for further three days.
The drug was added to the culture plate on Day 4 of culture as follows. The total amount of the medium was removed from the wells, and 180 μl/well of Neurobasal medium not containing 2-ME and containing 2% B-27 (Neurobasal/B27) was added thereto. A solution of the test compound in dimethyl sulfoxide (hereinafter abbreviated as DMSO) was diluted with Neurobasal/B27 at 10-fold of the final concentration. 20 μl/well of the dilution was added to and sufficiently mixed with the medium. The final DMSO concentration was 1% or less. Only DMSO was added to the control group.
The cells were cultured for three days after addition of the compound, and the total amount of the medium was collected. […]
(In general: ELISA stands for enzyme-linked immunosorbent assay.)
The term IC50 denotes the concentration at which inhibition is half-maximal. With `COc1cc(/C=C/c2nc3n(n2)CCCC3c2ccc(C)cc2)ccc1-n1cnc(C)c1` (single isomer, unassigned) [Example 151, (−)-2-{(E)-2-[3-methoxy-4-(4-methyl-1H-imidazol-1-yl)phenyl]vinyl}-8-p-tolyl-5,6,7,8-tetrahydro[1,2,4]triazolo[1,5-a]pyridine], the 50% inhibitory concentration (IC50) worked out at 16 nM. As for `COc1cc(/C=C/c2nc3n(n2)CCCC3(O)c2ccc(Cl)cc2)ccc1-n1cnc(C)c1` (single isomer, unassigned) [Example 153, (−)-8-(4-chlorophenyl)-2-{(E)-2-[3-methoxy-4-(4-methyl-1H-imidazol-1-yl)phenyl]vinyl}-5,6,7,8-tetrahydro[1,2,4]triazolo[1,5-a]pyridin-8-ol], the IC50 was determined as 31 nM.

Take `COc1cc(/C=C/c2nc3n(n2)CCC[C@]3(O)c2ccc(C)cc2)ccc1-n1cnc(C)c1` (single isomer, unassigned) [Example 155, (−)-2-{(E)-2-[3-methoxy-4-(4-methyl-1H-imidazol-1-yl)phenyl]vinyl}-8-p-tolyl-5,6,7,8-tetrahydro[1,2,4]triazolo[1,5-a]pyridin-8-ol]: the IC50 was found to be 39 nM. On to `COc1cc(/C=C/c2nc3n(n2)CCC[C@H]3c2ccccc2)ccc1-n1cnc(C)c1` (single isomer, unassigned) [Example 172, (−)-2-{(E)-2-[3-methoxy-4-(4-methyl-1H-imidazol-1-yl)phenyl]vinyl}-8-phenyl-5,6,7,8-tetrahydro[1,2,4]triazolo[1,5-a]pyridine], for which the half-inhibitory concentration (IC50) was determined as 11 nM.

Regarding `COc1cc(/C=C/c2nc3n(n2)CCC[C@H]3c2ccccc2Br)ccc1-n1cnc(C)c1` (single isomer, unassigned) [Example 174, (−)-8-(2-bromophenyl)-2-{(E)-2-[3-methoxy-4-(4-methyl-1H-imidazol-1-yl)phenyl]vinyl}-5,6,7,8-tetrahydro[1,2,4]triazolo[1,5-a]pyridine], the concentration for half-maximal inhibition (IC50) amounted to 23 nM. Consider `COc1cc(/C=C/c2nc3n(n2)CCOC3c2ccc(Br)cc2)ccc1-n1cnc(C)c1` (single isomer, unassigned; (-)) [Example 143, (−)-8-(4-bromophenyl)-2-{(E)-2-[3-methoxy-4-(4-methyl-1H-imidazol-1-yl)phenyl]vinyl}-5,6-dihydro-8H-[1,2,4]triazolo[5,1-c][1,4]oxazine], for which the IC50 stood at 22 nM.

As for `COc1cc(/C=C/c2nc(-c3ccc(F)cc3)c[nH]2)ccc1-n1cnc(C)c1` [Example 1, 4-(4-fluorophenyl)-2-{(E)-2-[3-methoxy-4-(4-methyl-1H-imidazol-1-yl)phenyl]vinyl}-1H-imidazole], the half-inhibitory concentration (IC50) came out at 45 nM. In the case of `COc1cc(/C=C/c2nc(-c3ccccc3)c[nH]2)ccc1-n1cnc(C)c1` [Example 4, 2-{(E)-2-[3-methoxy-4-(4-methyl-1H-imidazol-1-yl)phenyl]vinyl}-4-phenyl-1H-imidazole], the half-maximal inhibitory concentration (IC50) was found to be 76 nM.

Consider `COc1cc(/C=C/c2nc(-c3ccccc3)cn2C)ccc1-n1cnc(C)c1` [Example 5, 2-{(E)-2-[3-methoxy-4-(4-methyl-1H-imidazol-1-yl)phenyl]vinyl}-1-methyl-4-phenyl-1H-imidazole], for which the IC50 was 18 nM. Take `COC(=O)c1[nH]c(/C=C/c2ccc(-n3cnc(C)c3)c(OC)c2)nc1-c1ccc(F)cc1` [Example 6, methyl 5-(4-fluorophenyl)-2-{(E)-2-[3-methoxy-4-(4-methyl-1H-imidazol-1-yl)phenyl]vinyl}-1H-imidazole-4-carboxylate]: the 50% inhibitory concentration (IC50) turned out to be 60 nM.

Regarding `COc1cc(/C=C/c2nc(-c3ccc(F)cc3)c(CO)[nH]2)ccc1-n1cnc(C)c1` [Example 7, 5-(4-fluorophenyl)-2-{(E)-2-[3-methoxy-4-(4-methyl-1H-imidazol-1-yl)phenyl]vinyl}-(1H-imidazol-4-yl)methanol], the half-maximal inhibitory concentration (IC50) was found to be 67 nM.

Take `COc1cc(/C=C/c2nc(-c3ccc(F)cc3)c(C(=O)NCCCl)[nH]2)ccc1-n1cnc(C)c1` [Example 9, 5-(4-fluorophenyl)-2-{(E)-2-[3-methoxy-4-(4-methyl-1H-imidazol-1-yl)phenyl]vinyl}-1H-imidazole-4-carboxylic acid (2-chloroethyl)amide]: the IC50 came to 83 nM. `COc1cc(/C=C/c2nc(-c3ccc(F)cc3)c3n2CCNC3=O)ccc1-n1cnc(C)c1` [Example 10, 1-(4-fluorophenyl)-3-{(E)-2-[3-methoxy-4-(4-methyl-1H-imidazol-1-yl)phenyl]vinyl}-6,7-dihydro-5H-imidazo[1,5-a]pyrazin-8-one]: the IC50 is 130 nM. Regarding `COc1cc(/C=C/c2nc(-c3ccc(F)cc3)c3n2CCOC3)ccc1-n1cnc(C)c1` [Example 13, 1-(4-fluorophenyl)-3-{(E)-2-[3-methoxy-4-(4-methyl-1H-imidazol-1-yl)phenyl]vinyl}-5,6-dihydro-8H-imidazo[5,1-c][1,4]oxazine], the half-maximal inhibitory concentration (IC50) came to 170 nM. Turning to `COc1cc(/C=C/c2nc(-c3ccc(F)cc3)c3n2CCN(C)C3)ccc1-n1cnc(C)c1` [Example 15, 1-(4-fluorophenyl)-3-{(E)-2-[3-methoxy-4-(4-methyl-1H-imidazol-1-yl)phenyl]vinyl}-7-methyl-5,6,7,8-tetrahydroimidazo[1,5-a]pyrazine], the 50% inhibitory concentration (IC50) stood at 180 nM.

Take `COc1cc(/C=C/c2nnc(Cc3ccc(F)cc3)[nH]2)ccc1-n1cnc(C)c1` [Example 17, 3-(4-fluorobenzyl)-5-{(E)-2-[3-methoxy-4-(4-methyl-1H-imidazol-1-yl)phenyl]vinyl}-4H-[1,2,4]triazole]: the IC50 worked out at 58 nM. For the compound `COc1cc(/C=C2\CCCn3c(-c4ccc(F)cc4)cnc32)ccc1-n1cnc(C)c1` [Example 18, 3-(4-fluorophenyl)-8-{1-[3-methoxy-4-(4-methyl-1H-imidazol-1-yl)phenyl]-(E)-methylidene}-5,6,7,8-tetrahydroimidazo[1,2-a]pyridine], the IC50 came to 170 nM. The value for `COC(=O)c1nc2n(c1-c1ccc(F)cc1)CCC/C2=C\c1ccc(-n2cnc(C)c2)c(OC)c1` [Example 21, methyl 3-(4-fluorophenyl)-8-{1-[3-methoxy-4-(4-methyl-1H-imidazol-1-yl)phenyl]-(E)-methylidene}-5,6,7,8-tetrahydroimidazo[1,2-a]pyridine-2-carboxylate] was 41 nM.

As for `COC(=O)c1c(-c2ccc(F)cc2)nc2n1CCC/C2=C\c1ccc(-n2cnc(C)c2)c(OC)c1` [Example 22, methyl 2-(4-fluorophenyl)-8-{1-[3-methoxy-4-(4-methyl-1H-imidazol-1-yl)phenyl]-(E)-methylidene}-5,6,7,8-tetrahydroimidazo[1,2-a]pyridine-3-carboxylate], the IC50 stood at 170 nM. `COc1cc(/C=C2\CCCn3c2nc(CO)c3-c2ccc(F)cc2)ccc1-n1cnc(C)c1` [Example 23, {3-(4-fluorophenyl)-8-{1-[3-methoxy-4-(4-methyl-1H-imidazol-1-yl)phenyl]-(E)-methylidene}-5,6,7,8-tetrahydroimidazo[1,2-a]pyridin-2-yl}methanol]: the IC50 was 60 nM. For the compound `COc1cc(/C=C/c2nnc(CCc3ccc(F)cc3)[nH]2)ccc1-n1cnc(C)c1` [Example 32, 3-[2-(4-fluorophenyl)ethyl]-5-{(E)-2-[3-methoxy-4-(4-methyl-1H-imidazol-1-yl)phenyl]vinyl}-4H-[1,2,4]triazole], the IC50 was determined as 62 nM. For the compound `COc1cc(/C=C/c2nc(C(C)c3ccccc3)n(C)n2)ccc1-n1cnc(C)c1` (stereo not shown) [Example 45, 3-{(E)-2-[3-methoxy-4-(4-methyl-1H-imidazol-1-yl)phenyl]vinyl}-1-methyl-5-(1-phenylethyl)-1H-[1,2,4]triazole], the half-maximal inhibitory concentration (IC50) is 85 nM.
